Values quoted from earlier work as cited in patent publication US20050196418A1, “Bioavailability and improved delivery of alkaline pharmaceutical drugs” (priority 2004, published 2005).

Conditions: free base; due to air oxidation

chemical stability in a solution or formulation for shelf storage: chemically unstable
Compound: Clc1ccccc1C(c1ccccc1)(c1ccccc1)n1ccnc1 [Clotrimazole]
